Results taken from the supplement of paper PMC11451515.

System: SEM cells
Assay: cell viability relative to DMSO control; higher = less cytotoxic
Settings: 48 h
Summary of the method: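 NOMO1, SEM and P12-Ichikawa leukemia cells spent at least four passages adapting to each medium before use. They were seeded at 500 cells/well (NOMO1, SEM) or 1000 cells/well (P12-Ichikawa) in 5 μl in 1536-well plates and pin-dosed with library compounds in DMSO at 11 threefold steps from 47 μM down to 0.79 nM. After 48 h at 37°C, CellTiter-Glo One luminescence was read. Viability is reported as a percentage of the DMSO wells on each plate, with cell-free wells as background.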

[1] = HPLM + 10% dialyzed FBS, 0.000781 µM
[2] = HPLM + 10% dialyzed FBS, 0.00234 µM
[3] = HPLM + 10% dialyzed FBS, 0.00702 µM
[4] = HPLM + 10% dialyzed FBS, 0.0211 µM
[5] = HPLM + 10% dialyzed FBS, 0.0632 µM
[6] = HPLM + 10% dialyzed FBS, 0.19 µM
[7] = HPLM + 10% dialyzed FBS, 0.569 µM
[8] = HPLM + 10% dialyzed FBS, 1.71 µM
[9] = HPLM + 10% dialyzed FBS, 5.12 µM
[10] = HPLM + 10% dialyzed FBS, 15.4 µM
[11] = HPLM + 10% dialyzed FBS, 46.1 µM
[12] = RPMI 5 mM glucose + 10% FBS, 0.000781 µM
[13] = RPMI 5 mM glucose + 10% FBS, 0.00234 µM
[14] = RPMI 5 mM glucose + 10% FBS, 0.00702 µM
[15] = RPMI 5 mM glucose + 10% FBS, 0.0211 µM
[16] = RPMI 5 mM glucose + 10% FBS, 0.0632 µM
[17] = RPMI 5 mM glucose + 10% FBS, 0.19 µM
[18] = RPMI 5 mM glucose + 10% FBS, 0.569 µM
[19] = RPMI 5 mM glucose + 10% FBS, 1.71 µM
[20] = RPMI 5 mM glucose + 10% FBS, 5.12 µM
[21] = RPMI 5 mM glucose + 10% FBS, 15.4 µM
[22] = RPMI 5 mM glucose + 10% FBS, 46.1 µM
[23] = RPMI 5 mM glucose + 10% dialyzed FBS, 0.000781 µM
[24] = RPMI 5 mM glucose + 10% dialyzed FBS, 0.00234 µM
[25] = RPMI 5 mM glucose + 10% dialyzed FBS, 0.00702 µM
[26] = RPMI 5 mM glucose + 10% dialyzed FBS, 0.0211 µM
[27] = RPMI 5 mM glucose + 10% dialyzed FBS, 0.0632 µM
[28] = RPMI 5 mM glucose + 10% dialyzed FBS, 0.19 µM
[29] = RPMI 5 mM glucose + 10% dialyzed FBS, 0.569 µM
[30] = RPMI 5 mM glucose + 10% dialyzed FBS, 1.71 µM
[31] = RPMI 5 mM glucose + 10% dialyzed FBS, 5.12 µM
[32] = RPMI 5 mM glucose + 10% dialyzed FBS, 15.4 µM
[33] = RPMI 5 mM glucose + 10% dialyzed FBS, 46.1 µM

SMILES	cell viability [1] [%]	cell viability [2] [%]	cell viability [3] [%]	cell viability [4] [%]	cell viability [5] [%]	cell viability [6] [%]	cell viability [7] [%]	cell viability [8] [%]	cell viability [9] [%]	cell viability [10] [%]	cell viability [11] [%]	cell viability [12] [%]	cell viability [13] [%]	cell viability [14] [%]	cell viability [15] [%]	cell viability [16] [%]	cell viability [17] [%]	cell viability [18] [%]	cell viability [19] [%]	cell viability [20] [%]	cell viability [21] [%]	cell viability [22] [%]	cell viability [23] [%]	cell viability [24] [%]	cell viability [25] [%]	cell viability [26] [%]	cell viability [27] [%]	cell viability [28] [%]	cell viability [29] [%]	cell viability [30] [%]	cell viability [31] [%]	cell viability [32] [%]	cell viability [33] [%]
CC(C)(Cc1ccc2ccccc2c1)NC[C@@H](O)COc1cccc(Cl)c1C#N	128	121	125	121	124	123	119	120	108	96.7	65.7	127	113	120	116	124	121	115	126	86	128	62.8											
CN[C@@H](C)C(=O)N[C@H]1CCCC[C@H]2CC[C@@H](C(=O)N[C@@H](c3ccccc3)c3cn(CCCCc4ccc(CCCCn5cc([C@@H](NC(=O)[C@@H]6CC[C@@H]7CCCC[C@H](NC(=O)[C@H](C)NC)C(=O)N76)c6ccccc6)nn5)cc4)nn3)N2C1=O	73.5	96.1	90.5	100	90.5	89.2	88.1	91	92.2	103	69.2	90.3	97.9	94.9	95.6	83.4	89.5	82.2	87.2	94.8	85	35.3	95.8	90.5	82	95.2	99.4	86.8	82.3	95.3	82.4	84.4	54.4
CC(=O)SCC(Cc1ccccc1)C(=O)NCC(=O)OCc1ccccc1 (configuration not stated)	86.1	79.1	93.3	96.4	99	103	105	97.4	108	108	102	84.9	77.2	97.1	94	96	92.5	98.3	99.8	95.7	91.2	90.1	77.4	77.6	82.1	104	109	104	115	114	108	116	96.9
CN1[C@@H]2CC(O)C[C@H]1[C@@H]1O[C@@H]12 (some centres not stated)												124	123	114	19.5	134	115	109	130	115	109	7.57	101	126	116	21.8	103	111	103	106	94.3	81.4	5.54
COc1ccc([C@@H]2CNC(=O)C2)cc1OC1CCCC1	83.1	90.7	93.9	102	103	103	96.2	114	114	111	93.2	76.9	101	92.3	93.7	100	98.6	92	95.5	103	95.6	98	97.1	94.3	97.9	70.6	97.4	103	104	106	99.6	97.6	90.9
C[C@@]12OC(=O)[C@@]1(NC(=O)[C@@H]2CCCl)[C@@H](O)[C@H]\3CCC\C=C3	78.2	92.7	93.6	100	34.2	10	6.88	6.65	4.57	3.3	2.16	87.5	90.2	93.7	96.8	31.8	8.22	7.13	6.4	4.56	2.53	2.01	80.9	92	91.8	84	33.3	9.46	7.84	7.08	5.11	3.72	2.53
CO[C@@H]1[C@H](N(C)C(=O)c2ccccc2)C[C@H]2O[C@]1(C)n1c3ccccc3c3c4c(c5c6ccccc6n2c5c31)C(=O)NC4	103	104	119	97	114	105	55.5	37.6	20.7	12.7	7	87	111	110	106	105	92.4	64.2	30.3	10.9	6.27	4.63	101	108	109	97	107	85.5	63	34.7	11.8	7.3	4.43
CCN(CC)CCOC1=CC=C(NC2=NC=C3\C=C(/C(=O)N(C)C3=N2)C4=C(Cl)C=CC=C4Cl)C=C1	94.9	101	105	74.5	67.9	58.4	56.8	56	10.9	6.61	4.15	78.3	67.6	74.7	52.1	48.6	44.8	38.2	45.8	11.7	7.2	2.88	92.5	102	106	68.3	76.1	69.1	61.1	59.8	13.5	8.59	3.75
